Results on 16 compounds are retold here after patent US20100311748A1, “HETEROCYCLIC AMIDES USEFUL FOR THE TREATMENT OF CANCER AND PSORIASIS” (ASTRAZENECA AB, priority 2007, published 2010).

pIC50: −log10 of the molar value. Where only a bound is given, the exact number is not on record here.

The test system of the first assay is Hedgehog pathway. The assay can be described thus: Hedgehog Pathway Cellular Differentiation Assay (alkaline phosphatase production in C3H10T1/2 cells with Shh ligand). The format is cell-based. Conditions: Mus musculus, C3H 10T1/2, 3 μM compound, Shh ligand conditioned media, 72 h, alkaline phosphatase. The gist of the method:
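C3H10T1/2 cells in DMEM/2% FBS with Shh-conditioned medium were treated 72 h with compound, threefold dilutions from 30 μM to 3 nM. After RIPA lysis, alkaline phosphatase was read with pNp (1 mg/mL, diethanolamine pH 9.8) at 30 °C, absorbance 405 nm. Percent inhibition and IC50 came from absorbance.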
The compound `Cc1ccc(-c2ncc[nH]2)cc1NC(=O)c1ccc(OCc2ncccc2C#N)cc1` [Example 136, N-(5-(1H-imidazol-2-yl)-2-methylphenyl)-4-((3-cyanopyridin-2-yl)methoxy)benzamide] registered an inhibition at 3 µM of 77%. The compound `CNCc1c(-c2ccc(C)c(NC(=O)c3ccc(OCc4ccccn4)cc3)c2)ncn1C` [Example 80, N-(2-methyl-5-{1-methyl-5-[(methylamino)methyl]-1H-imidazol-4-yl}phenyl)-4-(pyridin-2-ylmethoxy)benzamide] came in with an inhibition at 3 µM of 57.1%. Same read-out and setting: then `COc1ccccc1COc1ccc(C(=O)Nc2cc(-c3ncc[nH]3)ccc2C)cc1` [Example 63, N-[5-(1H-imidazol-2-yl)-2-methylphenyl]-4-[(2-methoxybenzyl)oxy]benzamide], with 79.8%; and `Cc1ccc(-c2ncc[nH]2)cc1NC(=O)c1ccc(OCc2cc3c(cc2Cl)OCO3)cc1` [Example 57, 4-[(6-chloro-1,3-benzodioxol-5-yl)methoxy]-N-[5-(1H-imidazol-2-yl)-2-methylphenyl]benzamide], with 73.6%.

With `Cc1ccc(-c2nccn2C)cc1NC(=O)c1ccc(OCc2cc(N3CCN(C)CC3)ccc2C#N)cc1` [Example 115, 4-(2-cyano-5-(4-methylpiperazin-1-yl)benzyloxy)-N-(2-methyl-5-(1-methyl-1H-imidazol-2-yl)phenyl)benzamide], testing at 3 µM gave an inhibition of 82.8%.

For `Cc1ccc(-c2ncc[nH]2)cc1NC(=O)c1ccc(OCc2ccc(N3CCOCC3)cn2)cc1` [Example 139, N-(5-(1H-imidazol-2-yl)-2-methylphenyl)-4-((5-morpholinopyridin-2-yl)methoxy)benzamide], at 3 µM the inhibition was 84.1%.

As for `Cc1cc(C)c(-c2cn(C)c(C)n2)cc1NC(=O)c1ccc(OCc2ccccn2)cc1` [Example 73, N-(5-(1,2-dimethyl-1H-imidazol-4-yl)-2,4-dimethylphenyl)-4-(pyridin-2-ylmethoxy)benzamide], at 3 µM the inhibition was 85.8%. Still for that read-out and setting: the value for `Cc1nnc(-c2ccc(C)c(NC(=O)c3ccc(OCc4ccccn4)cc3)c2)o1` [Example 38, N-(2-methyl-5-(5-methyl-1,3,4-oxadiazol-2-yl)phenyl)-4-(pyridin-2-ylmethoxy)benzamide] was 24.2%; that for `Cc1ccc(-c2ncc[nH]2)cc1NC(=O)c1ccc(OCc2cccc(N3CCN(C)CC3)n2)cc1` [Example 128, N-(5-(1H-imidazol-2-yl)-2-methylphenyl)-4-((6-(4-methylpiperazin-1-yl)pyridin-2-yl)methoxy)benzamide] was 81.5%; that for `Cc1nc(-c2ccc(C)c(NC(=O)c3ccc(OCc4ccccn4)cc3)c2)c[nH]1` [Example 24, N-[2-methyl-5-(2-methyl-1H-imidazol-4-yl)phenyl]-4-(pyridin-2-ylmethoxy)benzamide] was 81.1%.

`Cc1ccc(-c2cccnc2)cc1NC(=O)c1ccc(OCc2ccccn2)cc1` [Example 7, N-(2-methyl-5-pyridin-3-yl-phenyl)-4-(pyridin-2-ylmethoxy)benzamide] yielded an inhibition at 3 µM of 70.8%. On the same count and under the same terms, the value for `Cc1cn(C)c(-c2ccc(C)c(NC(=O)c3ccc(OCc4ccccn4)cc3)c2)n1` [Example 26, N-[5-(1,4-dimethyl-1H-imidazol-2-yl)-2-methylphenyl]-4-(pyridin-2-ylmethoxy)benzamide] was 75.7%; that for `CCOc1ccnc(COc2ccc(C(=O)Nc3cc(-c4nccn4C)ccc3C)cc2)c1` [Example 97, 4-[(4-ethoxypyridin-2-yl)methoxy]-N-[2-methyl-5-(1-methyl-1H-imidazol-2-yl)phenyl]benzamide] was 81.9%; that for `Cc1ccc(-c2ncc(C)n2C)cc1NC(=O)c1ccc(OCc2ccccn2)cc1` [Example 20, N-[5-(1,5-dimethylimidazol-2-yl)-2-methyl-phenyl]-4-(pyridin-2-ylmethoxy)benzamide] was 58.1%. Compound `Cc1cn(C)c(-c2ccc(C)c(NC(=O)c3ccc(OCc4cccc(OCCN5CCOCC5)c4)cc3)c2)n1` [Example 66, N-[5-(1,4-dimethyl-1H-imidazol-2-yl)-2-methylphenyl]-4-{[3-(2-morpholin-4-ylethoxy)benzyl]oxy}benzamide] had an inhibition at 3 µM of 69.6%. `Cc1ccc(-c2ncnc3nc[nH]c23)cc1NC(=O)c1ccc(OCc2ccccn2)cc1` [Example 18, N-[2-methyl-5-(7H-purin-6-yl)phenyl]-4-(pyridin-2-ylmethoxy)benzamide] registered an inhibition at 3 µM of 48.4%.

The assay is the same for the next values; noted with them: Mus musculus, C3H 10T1/2, Shh ligand conditioned media, 72 h, alkaline phosphatase (pNp, 405 nm).
For the compound `Cc1ccc(-c2ncc(C)n2C)cc1NC(=O)c1ccc(OCc2ccccn2)cc1` [Example 20, N-[5-(1,5-dimethylimidazol-2-yl)-2-methyl-phenyl]-4-(pyridin-2-ylmethoxy)benzamide], the pIC50 is more than 8.52. Compound `Cc1ccc(-c2ncnc3nc[nH]c23)cc1NC(=O)c1ccc(OCc2ccccn2)cc1` [Example 18, N-[2-methyl-5-(7H-purin-6-yl)phenyl]-4-(pyridin-2-ylmethoxy)benzamide] gave a pIC50 of 7.52.
